The values that follow come from patent US11198686B2, “Crystal form and salt form of pyridone compound and preparation method therefor” (GUANGZHOU JOYO PHARMATECH CO., LTD., priority 2017, dated 2021).

Usually inhibition stands for the relative decrease from the control value, in per cent. Higher therefore signals a strong effect. What is called solubility is the dissolved amount per volume that the medium holds.

The subject of data set [1] is TNF-α. The experiment in a line: Ex-vivo effect on endotoxin LPS-induced TNF-α in rat blood (ELISA). Format: cell-based, Sprague Dawley rats. As for the experimental part:
Experimental objective: testing the effect of Compound 1 on bacterial lipopolysaccharide (LPS)-induced TNF-α in rat blood to evaluate the anti-inflammatory effect ex-vivo
Sprague Dawley rats (male, 280-310 g, Shanghai Slac Laboratory Animal CO. LTD)
Rat TNF-alpha Quantikine ELISA Kit (R&D, #SRTA00)
A solution of the compound was prepared (5 mM or 1 mM), and 40 μL of the prepared solution was added into a 48-well cell culture plate, respectively (the final concentration of the compounds was 0.5 or 0.1 mM). The rats were anaesthetized with isoflurane and the blood was collected from the abdominal aorta (Heparin anticoagulant). The blood was added into the 48-well cell culture plate (320 μL per well) containing the compounds to be tested. Afterwards, the 48-well cell culture plate was incubated at 37° C. for 30 minutes. Then the plate was taken out, and 40 μL of LPS (the final concentration was 100 μg/mL) was added and mixed evenly. The resulting mixture was incubated at 37° C. After 5 hours, the 48-well plate was taken out and the blood was transferred into 1.5 mL centrifuge tubes and centrifuged in a centrifuge (4,500 rpm, 4° C., 5 min). The supernatant was isolated to obtain the plasma, which was aliquoted (20 μL per well) into a 96-well sample plate, and then sharp-frozen and preserved in a refrigerator (−80° C.). On the second day, the TNF-α level in the plasma samples was determined by using R&D ELISA kits according to the kit specification. The data was analyzed by EXCEL and Prism.
Background: An ELISA detects its analyte on a solid surface through an enzyme-linked reagent.

Data set [2] can be described thus: Study on polymorphism of Compound 1 (suspension in solvents, XRPD). Format: physicochemical. To be noted: for Crystal form: 40° C., 2 days. The procedure: Approximate 50 mg of the sample were weighed and added to separate 4.0 mL glass vials, respectively, followed by addition of an appropriate amount of the solvents or solvent mixture (see the table below) to give a suspension. After shaking at 40° C. for 2 days, all the samples were taken out and centrifuged in a centrifuge at 8000 r/min for 5 minutes. The supernatant was discarded, and the remaining solid was dried in a 35° C. vacuum drying box for two days. The dried samples were taken out for XRPD detection.

Data set [3] in a line: Approximate solubility of crystal form A in different solvents (manual stepwise dilution). Format: physicochemical. Conditions: thermodynamic from solid, ambient temperature. The procedure: In this study, the method of manual stepwise dilution along with the observation of the dissolution under ambient temperature condition was used for determination. About 2 mg of crystal form A of Compound 1 was added to separate HPLC vials, followed by multiple addition of organic solvents or the mixed solvents (Table 5) in a small amount, and the dissolution of the compound was monitored.

Data set [4] can be described thus: Solid-state stability test of crystal form A under high temperature and high humidity (HPLC, XRPD). Format: physicochemical. To be noted: for Appearance / Crystal form / Purity / Total impurities: open. The procedure: 16 samples of 10 mg of crystal form A were weighed in parallel and spread evenly on the bottom of glass bottles, and 8 samples of 20 mg of crystal form A were spread out into a thin layer. All sample bottles were sealed with aluminum foil, and some small holes were punched on the aluminum foil to allow the samples to fully contact with the ambient air. The samples were placed at 40° C./75% RH and 60° C./75% RH for 1 month, 2 months and 3 months, respectively.
Analytical method: Agilent 1260 HPLC with DAD detector or Waters 2695 HPLC with PDA detector was used: column: Waters Atlantis dC18 (4.6 mm×150 mm, 3.0 μm); column temperature: 40° C.; flow rate: 1.0 mL/min; detection wavelength: 230 nm; injection volume: 10 μL; sample concentration: 0.5 mg/mL; diluent: acetonitrile:water=1:1 (v/v); the following mobile phase gradients were used for analysis: […]

The nature of data set [5]: Solid-state physical stability test of crystal form A under different temperature, humidity and light irradiation. Format: physicochemical. To be noted: for Appearance / Crystal form: 10 d. As for the experimental part: 4 samples of 100 mg of crystal form A solid were weighed in parallel and spread evenly on the bottom of the glass bottles into a thin layer. The bottles were sealed with aluminum foil, and some small holes were punched on the aluminum foil to allow the sample to be fully in contact with the ambient air. The 4 samples prepared were placed under the conditions of 25° C./92.5% RH, 60° C., 40° C./75% RH and light irradiation, and the physical stability of the samples on the 10th day was examined. In the meantime, about 100 mg of crystal form A solid was weighed separately, placed on the bottom of a glass sample bottle, sealed with a screw cap and stored at −20° C., this sample was used as the control sample. On the 10th day, all samples were taken out, and returned to room temperature. The appearance change of the samples was observed, and XRPD was used to detect the crystal form of the samples. By comparing the accelerated samples with the control sample, the solid-state physical stability of crystal form A of Compound 1 was determined.

The test system of data set [6] is idiopathic pulmonary fibrosis. The data set can be described thus: SD rat left unilateral pulmonary fibrosis model. Type of data set: in vivo.

The structures appear in SMILES notation. Values after ≈ are worked out from the molar mass of the structure shown.

Compound `Cc1ccc(=O)n(-c2ccccc2)c1` [Pirfenidone (PFD), Pirfenidone, reference compound] yielded an inhibition at 500 µM in data set [1] (rat blood, LPS 100 μg/mL, compound 0.5 mM) of 53.5%.

`CC1(c2ccc(=O)n(-c3ccsc3)c2)COC1` [Compound 1]: the Crystal form result in data set [2] (suspension in Acetone), in data set [2] (suspension in Acetone:Water (1:2)), in data set [2] (suspension in Acetonitrile), in data set [2] (suspension in Ethanol), in data set [2] (suspension in Ethyl acetate) and in data set [2] (suspension in Water) was “Form A” in each case.

Turning to `CC1(c2ccc(=O)n(-c3ccsc3)c2)COC1` [crystal form A], in data set [2] (under the conditions of the solvents of Table 4), the “Stability of crystal form in solvents (conclusion)” value was “stable”. Besides, in data set [1] (final concentration 0.1 mM, inhibition significantly higher than Pirfenidone), the “Inhibitory effect on TNF-α level induced by LPS (in words)” value is “significant inhibitory effect”. Besides, the inhibition at 100 µM in data set [1] (rat blood, LPS 100 μg/mL, compound 0.1 mM) turned out to be 80.8%. Further, the solubility in data set [3] (aqueous with cosolvent or surfactant or cyclodextrin, Acetone-water (1:2)) is 52 to 103 mg/mL (≈ 210 to 416 mM); in data set [3] (aqueous with cosolvent or surfactant or cyclodextrin, Acetonitrile-water (1:1)), above 100 mg/mL; in data set [3] (aqueous with cosolvent or surfactant or cyclodextrin, Ethanol-water (1:1)) it was above 100 mg/mL; in data set [3] (aqueous with cosolvent or surfactant or cyclodextrin, Ethanol-water (3:1)), above 104 mg/mL; in data set [3] (aqueous with cosolvent or surfactant or cyclodextrin, Isopropanol-water (1:1)), above 102 mg/mL; in data set [3] (aqueous with cosolvent or surfactant or cyclodextrin, Methanol-water (1:1)) it was above 102 mg/mL. The solubility is above 104 mg/mL in data set [3] (aqueous with cosolvent or surfactant or cyclodextrin, Methanol-water (3:1)); above 102 mg/mL in data set [3] (organic solvent or mixture, 1,4-dioxane); 34 to 51 mg/mL (≈ 137 to 206 mM) in data set [3] (organic solvent or mixture, 2-Methyltetrahydrofuran); 52 to 103 mg/mL (≈ 210 to 416 mM) in data set [3] (organic solvent or mixture, Acetone); above 100 mg/mL in data set [3] (organic solvent or mixture, Acetonitrile); below 2 mg/mL in data set [3] (organic solvent or mixture, Cyclohexane). The solubility in data set [3] (organic solvent or mixture, Ethanol) is 51 to 102 mg/mL (≈ 206 to 412 mM); in data set [3] (organic solvent or mixture, Ethyl acetate), 34 to 51 mg/mL (≈ 137 to 206 mM); in data set [3] (organic solvent or mixture, Heptane), below 2 mg/mL; in data set [3] (organic solvent or mixture, Isopropanol), 34 to 52 mg/mL (≈ 137 to 210 mM); in data set [3] (organic solvent or mixture, Isopropyl acetate), 20 to 34 mg/mL (≈ 80.9 to 137 mM); in data set [3] (organic solvent or mixture, Methanol) it was above 104 mg/mL. In addition, the solubility in data set [3] (organic solvent or mixture, Methyl ethyl ketone) was 52 to 104 mg/mL (≈ 210 to 421 mM); in data set [3] (organic solvent or mixture, Methyl isobutyl ketone) it was 34 to 51 mg/mL (≈ 137 to 206 mM); in data set [3] (organic solvent or mixture, Methyl tert-butyl ether) it was below 2 mg/mL; in data set [3] (organic solvent or mixture, Tetrahydrofuran), 51 to 102 mg/mL (≈ 206 to 412 mM); in data set [3] (organic solvent or mixture, Toluene) it was 35 to 52 mg/mL (≈ 142 to 210 mM); in data set [3] (organic solvent or mixture, n-butanol) it was 50 to 100 mg/mL (≈ 202 to 404 mM). The compound further yielded a solubility in data set [3] (Water) of 10 to 21 mg/mL (≈ 40.4 to 84.9 mM). In addition, the Appearance result in data set [4] (40° C./75% RH, 1 M) is reported as “White powder”; in data set [4] (40° C./75% RH, 2 M), “White powder”; in data set [4] (40° C./75% RH, 3 M) it was “White powder”; in data set [4] (60° C./75% RH, 1 M), “White powder”; in data set [4] (60° C./75% RH, 2 M), “White powder”; in data set [4] (60° C./75% RH, 3 M) it was “White powder”. In addition, the Appearance entry in data set [5] (25° C./92.5% RH (open)), in data set [5] (40° C./75% RH (open)), in data set [5] (60° C. (open)) and in data set [5] (Light irradiation) was “White” throughout. The Crystal form entry was “Form A” in data set [4] (40° C./75% RH, 1 M); “Form A” in data set [4] (40° C./75% RH, 2 M); “Form A” in data set [4] (40° C./75% RH, 3 M); “Form A” in data set [4] (60° C./75% RH, 1 M); “Form A” in data set [4] (60° C./75% RH, 2 M); “Form A” in data set [4] (60° C./75% RH, 3 M). The Crystal form entry in data set [5] (25° C./92.5% RH (open)), in data set [5] (40° C./75% RH (open)), in data set [5] (60° C. (open)) and in data set [5] (Light irradiation) was “Form A” throughout. The Purity amounted to 99.949% in data set [4] (40° C./75% RH, 1 M); 99.948% in data set [4] (40° C./75% RH, 2 M); 99.947% in data set [4] (40° C./75% RH, 3 M); 99.949% in data set [4] (60° C./75% RH, 1 M); 99.948% in data set [4] (60° C./75% RH, 2 M); 99.950% in data set [4] (60° C./75% RH, 3 M). Also, the Total impurities in data set [4] (40° C./75% RH, 1 M) was determined as 0.051%; in data set [4] (40° C./75% RH, 2 M), 0.052%; in data set [4] (40° C./75% RH, 3 M), 0.053%; in data set [4] (60° C./75% RH, 1 M) it was 0.051%; in data set [4] (60° C./75% RH, 2 M), 0.052%; in data set [4] (60° C./75% RH, 3 M), 0.050%. In addition, the “Solid-state stability (conclusion)” value in data set [4] (within three months, 40° C./75% RH and 60° C./75% RH) is “stable”. For the same compound, in data set [5] (within 10 days under each condition), the “Solid-state physical stability (conclusion)” value is recorded as “stable”. Further, the “Inhibitory effect on idiopathic pulmonary fibrosis (in words)” value in data set [6] is recorded as “significant inhibitory effect”.
